Among the test systems are ACHN renal; CCRF-CEM leukemia; HCT-116 colon; HL-60(TB) leukemia; K-562 leukemia; NCI-H226 lung; NCI/ADR-RES ovarian; SNB-19 CNS; U251 CNS; UO-31 renal.
Common to all, as to assay: inhibition of tumour cell growth, NCI panel, 48 h

Where “and” joins values, the source holds several entries; their conditions need not be identical. Equal values may be shown once.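 48-hour exposure; five concentrations; linearly interpolated endpoints. GI50: concentration for 50% inhibition of growth. TGI: concentration producing complete growth inhibition.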

As to `C[C@H]1C[C@@H](n2c(Nc3ccc(OC(F)(F)F)cc3)nc3cc(CCC(=O)O)ccc32)CC(C)(C)C1`, the GI50 in the assay with ACHN renal is 13.1 µM; in the assay with CCRF-CEM leukemia, 16.2 µM; with HCT-116 colon, 5.04 µM; in the assay on HL-60(TB) leukemia, 10.3 µM; in the assay on K-562 leukemia, 11.9 µM; in the assay on NCI-H226 lung it was 17.8 µM. Further, the GI50 is 11.7 µM in the assay with NCI/ADR-RES ovarian, 12.1 µM in the assay with SNB-19 CNS, 11.2 µM in the assay on U251 CNS and 9.38 µM with UO-31 renal. In addition, the TGI in the assay on ACHN renal turned out to be 27.1 µM; in the assay with CCRF-CEM leukemia, 44.5 µM; in the assay with HCT-116 colon, 18.5 µM; in the assay with HL-60(TB) leukemia, 29.1 µM; with K-562 leukemia, 37.7 µM; in the assay with NCI-H226 lung, 42.4 µM. For the same compound, the TGI in the assay on NCI/ADR-RES ovarian was found to be 27.5 µM; in the assay on SNB-19 CNS, 31.2 µM; in the assay with U251 CNS, 28.1 µM; in the assay on UO-31 renal, 21.5 µM.
Take `COc1ccc2nc3cc(Cl)ccc3c(Nc3ccccc3-c3ccccc3Nc3c4ccc(Cl)cc4nc4ccc(OC)cc34)c2c1`: the TGI in the assay with ACHN renal was greater than 59.2 µM; with CCRF-CEM leukemia, greater than 49.2 µM; with HCT-116 colon, greater than 100 µM; in the assay with HL-60(TB) leukemia, 16.8 µM; in the assay on K-562 leukemia it was 59.3 µM; with NCI-H226 lung it was greater than 73.4 µM. Moreover, the TGI in the assay with NCI/ADR-RES ovarian is greater than 100 µM; in the assay on SNB-19 CNS, greater than 100 µM; in the assay on U251 CNS, greater than 93.5 µM; in the assay with UO-31 renal, greater than 100 µM.
As for `O=C1/C(=C/c2ccc(F)cc2)COc2ccc(O)c(O)c21`, the GI50 in the assay with ACHN renal is 1.43 µM; in the assay on CCRF-CEM leukemia it was 0.313 µM; with HCT-116 colon, 1.87 µM; with HL-60(TB) leukemia it was 0.604 µM; with K-562 leukemia it was 0.354 µM; in the assay on NCI-H226 lung, 2.47 µM. In addition, the GI50 in the assay on NCI/ADR-RES ovarian was 1.96 µM; in the assay with SNB-19 CNS, 3.36 µM; in the assay with U251 CNS, 1.46 µM; in the assay with UO-31 renal, 1.05 µM. Further, the TGI in the assay with ACHN renal was 2.89 µM; in the assay on CCRF-CEM leukemia it was 1.46 µM; with HCT-116 colon, 4.98 µM; in the assay on HL-60(TB) leukemia, 3.89 µM; with K-562 leukemia, greater than 100 µM; in the assay on NCI-H226 lung, 7.08 µM. Further, the TGI in the assay on NCI/ADR-RES ovarian is 7.85 µM; in the assay with SNB-19 CNS it was 15.8 µM; with U251 CNS, 4.19 µM; in the assay on UO-31 renal it was 2.27 µM.
Turning to `CN1CCN(C2=C(Cl)C(=O)c3ccccc3C2=O)CC1`, the GI50 with ACHN renal is 1.57 µM; in the assay on CCRF-CEM leukemia it was 2.45 µM; in the assay with HCT-116 colon, 1.42 µM; in the assay with HL-60(TB) leukemia, 2.39 µM; in the assay on K-562 leukemia, 1.65 µM; in the assay with NCI-H226 lung, 3.31 µM. The GI50 is 2.03 µM with NCI/ADR-RES ovarian, 4.08 µM in the assay with SNB-19 CNS, 1.72 µM with U251 CNS and 1.22 µM in the assay with UO-31 renal. The TGI in the assay with ACHN renal amounted to 2.94 µM; with CCRF-CEM leukemia it was 7.96 µM; in the assay with HCT-116 colon it was 2.75 µM; in the assay with HL-60(TB) leukemia it was 5.84 µM; with K-562 leukemia, 7.57 µM; in the assay on NCI-H226 lung, 10.4 µM. The TGI is 4.57 µM in the assay on NCI/ADR-RES ovarian, 15.3 µM in the assay on SNB-19 CNS, 3.28 µM with U251 CNS and 2.63 µM in the assay with UO-31 renal.
Consider `NC(CSC(c1ccccc1)(c1ccccc1)c1ccccc1)C(=O)O` (stereo not given), for which the GI50 in the assay on ACHN renal was 20.2 µM and 9.65 µM; with CCRF-CEM leukemia it was 1.59 µM and 0.942 µM; in the assay on HCT-116 colon it was 0.512 µM and 0.425 µM; with HL-60(TB) leukemia, 2.54 µM and 2.11 µM; with K-562 leukemia, 1.76 µM and 0.775 µM; in the assay on NCI-H226 lung, 22.1 µM. The GI50 with NCI/ADR-RES ovarian is 10.9 µM; in the assay with SNB-19 CNS, 2.26 µM and 5.8 µM; with U251 CNS it was 1.11 µM and 0.485 µM; in the assay on UO-31 renal, 9.89 µM. The TGI is 79.5 µM and > 100 µM with ACHN renal; 19.4 µM and > 100 µM in the assay with CCRF-CEM leukemia; 55.3 µM and 64.2 µM and > 100 µM in the assay on HCT-116 colon; 5.93 µM and 1.53 µM and 8.62 µM in the assay on HL-60(TB) leukemia; 31.9 µM and > 100 µM with K-562 leukemia; 90.1 µM and > 100 µM with NCI-H226 lung. Moreover, the TGI was 48.2 µM and > 100 µM in the assay with NCI/ADR-RES ovarian; 63.9 µM and > 100 µM in the assay on SNB-19 CNS; 16.9 µM and 32.4 µM and 43.4 µM in the assay on U251 CNS; 107 µM and > 100 µM with UO-31 renal.
On to `NCC(=O)Nc1ccc(Cl)cc1C(=O)c1ccc[nH]1`, for which the TGI in the assay with ACHN renal is greater than 100 µM; with CCRF-CEM leukemia it was 22.5 µM; in the assay with HCT-116 colon, greater than 100 µM; with HL-60(TB) leukemia, greater than 100 µM; with K-562 leukemia, greater than 100 µM; with NCI-H226 lung, greater than 100 µM. Further, the TGI with NCI/ADR-RES ovarian, in the assay on SNB-19 CNS, with U251 CNS and in the assay with UO-31 renal was greater than 100 µM each time.

The values above are taken from PubChem BioAssay (NCI).
